The assay deals with muscle nicotinic acetylcholine receptor (Mus musculus). As to the kind of experiment: The compound was tested for inhibitory potency against Nicotinic acetylcholine receptor in mouse muscle.

For the molecule `CCCCCC1(CCO)N=N1` [2-(3-Pentyl-3H-diazirin-3-yl)-ethanol], the IC50 came to 33 µM.

(Values after BindingDB's records for doi:10.1021/jm9806300 (Massachusetts General Hospital, 1999).)
